Consider 18 compounds from US10954214B2 (Janssen Pharmaceutica NV, priority 2016, dated 2021).

SMILES strings stand for the structures. pIC50: −log10 of the molar value.

Assay [1] has as its system IL10 secretion by OCI-LY3 ABC-DLBCL cells. Description: Human IL10 Mesoscale assay (OCI-LY3). In kind it is cell-based. Particulars: Homo sapiens, 24 h. Put shortly: (§1)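 TMD8 or OCI-LY3 cells (100,000/well) were exposed to compounds in 9 twofold dilutions from 15 μM to 58.6 nM (0.3% DMSO) for 24 h at 37 °C. Supernatant IL6 and IL10 were quantified by MSD electrochemiluminescence immunoassay. DMSO defined maximum signal and BTK inhibitor RN486 (30 nM–131 pM) defined maximum inhibition.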

In assay [2] the target is full-length MALT1 protein (Strep-MALT1(1-824)-His) (Homo sapiens (Human), UniProt Q9UDY8). Briefly: MALT1 Biochemical Protease Assay (Ac-LRSR-AMC substrate). The note with it: 10 nM FL MALT1, 200 μM Ac-LRSR-AMC, 4 h at RT; read-out: MALT1_Biochemical activity (Ac-LRSR-amc) IC50. In short, it runs like this: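 Full-length MALT1 pre-incubated with compounds (30 μM to 0.5 nM, 11 threefold steps) for 50 min at RT. After Ac-LRSR-AMC was added, the reaction ran 4 h at RT and AMC fluorescence was read. IC50 and Hill slope from curve fitting against no-enzyme and no-compound controls.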

Assay [3] relates to IL6 secretion by OCI-LY3 ABC-DLBCL cells. Description: Human IL6 Mesoscale assay (OCI-LY3). In kind it is cell-based. The note with it: Homo sapiens, 24 h. In short, it runs like this: as §1
A further assay deals with TMD8 cells. Briefly: 4-day proliferation assay, TMD8. The format is cell-based. The note with it: Homo sapiens, 96 h, 4 days incubation, CellTiterGLO, read-out: Anti-proliferation: TMD-8 IC50. In short, it runs like this:
(§2)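 TMD8 and OCI-Ly3 cells were seeded at 10,000 per well and grown 4 days at 37° C, 5% CO2 without beta-mercaptoethanol. Viability was read by CellTiter-Glo luminescence. IC50 and Hill slope were fitted relative to the low control median.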
(Cellular ATP, detected with luciferase, serves as a proxy for viable cell number.)

A further assay has as its system OCI-Ly3 cells. Briefly: 4-day proliferation assay, OCI-Ly3. The format is cell-based, human. Particulars: Homo sapiens, 96 h, 4 days incubation, CellTiterGLO, read-out: Anti-proliferation: OCI-LY-3 IC50. Put shortly:
as §2

Chain of full-length MALT1 protein (Strep-MALT1(1-824)-His) (Q9UDY8 whole entry): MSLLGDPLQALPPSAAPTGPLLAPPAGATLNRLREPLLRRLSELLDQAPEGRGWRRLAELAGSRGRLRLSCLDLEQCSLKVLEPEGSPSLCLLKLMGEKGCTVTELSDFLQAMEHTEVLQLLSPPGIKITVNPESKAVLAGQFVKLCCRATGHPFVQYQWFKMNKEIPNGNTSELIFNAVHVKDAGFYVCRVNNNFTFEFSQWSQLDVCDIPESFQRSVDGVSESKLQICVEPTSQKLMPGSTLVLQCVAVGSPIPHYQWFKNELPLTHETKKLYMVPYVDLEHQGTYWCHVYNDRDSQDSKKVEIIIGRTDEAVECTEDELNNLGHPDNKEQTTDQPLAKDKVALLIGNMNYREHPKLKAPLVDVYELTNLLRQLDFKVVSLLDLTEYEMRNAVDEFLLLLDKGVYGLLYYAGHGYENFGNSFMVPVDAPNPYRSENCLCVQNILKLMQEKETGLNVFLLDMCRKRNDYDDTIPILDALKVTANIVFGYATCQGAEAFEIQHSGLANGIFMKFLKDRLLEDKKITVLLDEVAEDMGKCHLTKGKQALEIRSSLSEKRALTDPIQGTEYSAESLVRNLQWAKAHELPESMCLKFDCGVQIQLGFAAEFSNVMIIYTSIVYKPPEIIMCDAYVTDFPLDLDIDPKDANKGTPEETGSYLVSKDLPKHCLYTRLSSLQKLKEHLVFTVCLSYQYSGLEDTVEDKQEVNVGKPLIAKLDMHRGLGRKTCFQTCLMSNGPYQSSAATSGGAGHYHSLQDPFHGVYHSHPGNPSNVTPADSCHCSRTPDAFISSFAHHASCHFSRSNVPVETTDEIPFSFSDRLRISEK

On to `Cn1nc(-c2ncc(NC(=O)c3cnn(-c4cccc5ncccc45)c3C(F)(F)F)cc2C#N)cc1N` [Cpd 181, N-(6-(5-amino-1-methyl-1H-pyrazol-3-yl)-5-cyanopyridin-3-yl)-1-(quinolin-5-yl)-5-(trifluoromethyl)-1H-pyrazole-4-carboxamide], for which the pIC50 is 6.96 in assay [1]; 7.42 in assay [2]; 6.85 in assay [3]; < 5.10 with TMD8 cells; 5.83 in the assay with OCI-Ly3 cells.
With `Cc1nc(-n2nccn2)c(Cl)cc1NC(=O)c1cnn(-c2cncc3ccccc23)c1C(F)(F)F` [Cpd 191, N-(5-chloro-2-methyl-6-(2H-1,2,3-triazol-2-yl)pyridin-3-yl)-1-(isoquinolin-4-yl)-5-(trifluoromethyl)-1H-pyrazole-4-carboxamide], the pIC50 was 7.89 in assay [1]; 7.44 in assay [2]; 7.66 in assay [3]; 6.04 in the assay on TMD8 cells; 6.06 in the assay with OCI-Ly3 cells.
The corresponding values for `O=C(Nc1cnc(-c2nnco2)c(Cl)c1)c1cnn(-c2cccc3ncccc23)c1C(F)(F)F` [Cpd 192, N-(5-chloro-6-(1,3,4-oxadiazol-2-yl)pyridin-3-yl)-1-(quinolin-5-yl)-5-(trifluoromethyl)-1H-pyrazole-4-carboxamide] are 7.38, 7.60, 7.34, 5.34 and 6.23.
The corresponding values for `O=C(Nc1cnc(-n2nccn2)c(Cl)c1)c1cnn(-c2cccc3nccn23)c1C(F)(F)F` [Cpd 193, N-(5-chloro-6-(2H-1,2,3-triazol-2-yl)pyridin-3-yl)-1-(imidazo[1,2-a]pyridin-5-yl)-5-(trifluoromethyl)-1H-pyrazole-4-carboxamide] are 7.10, 7.39, 6.93, 5.44 and 6.28.
The corresponding values for `O=C(Nc1cnc(-n2nccn2)c(Cl)c1)c1cnn(-c2cccn3nccc23)c1C(F)(F)F` [Cpd 197, N-(5-chloro-6-(2H-1,2,3-triazol-2-yl)pyridin-3-yl)-1-(pyrazolo[1,5-a]pyridin-4-yl)-5-(trifluoromethyl)-1H-pyrazole-4-carboxamide] are 7.07, 7.82, 6.91, 5.13 and 6.53.
Regarding `N#Cc1cc(NC(=O)c2cnn(-c3cccc4nccn34)c2C(F)(F)F)cnc1-n1nccn1` [Cpd 200, N-(5-cyano-6-(2H-1,2,3-triazol-2-yl)pyridin-3-yl)-1-(imidazo[1,2-a]pyridin-5-yl)-5-(trifluoromethyl)-1H-pyrazole-4-carboxamide], the pIC50 is 6.55 in assay [1]; 7.40 in assay [2]; 6.42 in assay [3]; 5.13 in the assay on TMD8 cells; 5.86 in the assay on OCI-Ly3 cells.
The corresponding values for `O=C(Nc1cnc(-n2nccn2)c(Cl)c1)c1cnn(-c2cccc3ncc(Cl)n23)c1C(F)(F)F` [Cpd 201, N-(5-chloro-6-(2H-1,2,3-triazol-2-yl)pyridin-3-yl)-1-(3-chloroimidazo[1,2-a]pyridin-5-yl)-5-(trifluoromethyl)-1H-pyrazole-4-carboxamide] are 6.92, 7.55, 6.93, 5.44 and 6.11.
The corresponding values for `O=C(Nc1cc(Cl)c(-n2nccn2)cc1F)c1cnn(-c2cncc3c(F)cccc23)c1C(F)(F)F` [Cpd 302, N-(5-chloro-2-fluoro-4-(2H-1,2,3-triazol-2-yl)phenyl)-1-(8-fluoroisoquinolin-4-yl)-5-(trifluoromethyl)-1H-pyrazole-4-carboxamide] are 7.23, 7.27, 6.99, 6.02 and 6.16.
On to `N#Cc1cc(NC(=O)c2cnn(-c3ccc(F)c4ncccc34)c2C(F)(F)F)cnc1-n1nccn1` [Cpd 308, N-(5-cyano-6-(2H-1,2,3-triazol-2-yl)pyridin-3-yl)-1-(8-fluoroquinolin-5-yl)-5-(trifluoromethyl)-1H-pyrazole-4-carboxamide], for which the pIC50 in assay [1] was 6.78; in assay [2], 7.24; in assay [3] it was 6.66; in the assay with TMD8 cells, 5.34; with OCI-Ly3 cells, 6.21.
The corresponding values for `N#Cc1cc(NC(=O)c2cnn(-c3cccc4ocnc34)c2C(F)(F)F)cnc1-n1nccn1` [Cpd 311, 1-(benzo[d]oxazol-4-yl)-N-(5-cyano-6-(2H-1,2,3-triazol-2-yl)pyridin-3-yl)-5-(trifluoromethyl)-1H-pyrazole-4-carboxamide] are 7.43, 7.30, 7.47, 5.45 and 5.64.
Turning to `Cc1nc(-n2nccn2)c(C#N)cc1NC(=O)c1cnn(-c2cccc3nnsc23)c1C(F)(F)F` [Cpd 314, 1-(benzo[d][1,2,3]thiadiazol-7-yl)-N-(5-cyano-2-methyl-6-(2H-1,2,3-triazol-2-yl)pyridin-3-yl)-5-(trifluoromethyl)-1H-pyrazole-4-carboxamide], the pIC50 in assay [1] is 6.16; in assay [2] it was 7.41; in assay [3], 5.99; with TMD8 cells it was 5.73; in the assay with OCI-Ly3 cells, 6.20.
The corresponding values for `N#Cc1cc(NC(=O)c2cnn(-c3cccc4scnc34)c2C(F)(F)F)cnc1-n1nccn1` [Cpd 316, 1-(benzo[d]thiazol-4-yl)-N-(5-cyano-6-(2H-1,2,3-triazol-2-yl)pyridin-3-yl)-5-(trifluoromethyl)-1H-pyrazole-4-carboxamide] are 6.74, 7.43, 6.60, 5.51 and 5.84.
On to `N#Cc1cc(NC(=O)c2cnn(-c3ccc(N)c4ncccc34)c2C(F)(F)F)cnc1-n1nccn1` [Cpd 326, 1-(8-aminoquinolin-5-yl)-N-(5-cyano-6-(2H-1,2,3-triazol-2-yl)pyridin-3-yl)-5-(trifluoromethyl)-1H-pyrazole-4-carboxamide], for which the pIC50 in assay [1] is 7.05; in assay [2] it was 7.35; in assay [3], 6.98; in the assay with TMD8 cells it was 5.49; in the assay with OCI-Ly3 cells it was 6.06.
The corresponding values for `Cc1nc(-n2nccn2)c(C#N)cc1NC(=O)c1cnn(-c2cnc(N)c3ccccc23)c1C(F)(F)F` [Cpd 338, 1-(1-aminoisoquinolin-4-yl)-N-(5-cyano-2-methyl-6-(2H-1,2,3-triazol-2-yl)pyridin-3-yl)-5-(trifluoromethyl)-1H-pyrazole-4-carboxamide] are 7.51, 7.24, 7.35, 5.84 and 5.94.
The corresponding values for `CC(O)c1ncc(-n2ncc(C(=O)Nc3cnc(-n4nccn4)c(Cl)c3)c2C(F)(F)F)c2ccsc12` (stereo not drawn) [Cpd 376, N-(5-chloro-6-(2H-1,2,3-triazol-2-yl)pyridin-3-yl)-1-(7-(1-hydroxyethyl)thieno[2,3-c]pyridin-4-yl)-5-(trifluoromethyl)-1H-pyrazole-4-carboxamide] are 7.30, 7.62, 7.24, 5.84 and 5.97.
The corresponding values for `NC(=O)c1ncc(-n2ncc(C(=O)Nc3cnc(-n4nccn4)c(Cl)c3)c2C(F)(F)F)c2ccccc12` [Cpd 387, 4-(4-((5-chloro-6-(2H-1,2,3-triazol-2-yl)pyridin-3-yl)carbamoyl)-5-(trifluoromethyl)-1H-pyrazol-1-yl)isoquinoline-1-carboxamide] are 7.02, 7.52, 6.85, 5.66 and 6.16.
`O=C(Nc1cnc(-n2nccn2)c(Cl)c1)c1cnn(-c2cc(=O)[nH]c3ccccc23)c1C(F)(F)F` [Cpd 418, N-(5-chloro-6-(2H-1,2,3-triazol-2-yl)pyridin-3-yl)-1-(2-oxo-1,2-dihydroquinolin-4-yl)-5-(trifluoromethyl)-1H-pyrazole-4-carboxamide]: the pIC50 in assay [1] is 7.15; in assay [2] it was 6.26; in assay [3], 7.02; in the assay with TMD8 cells, 5.44; in the assay with OCI-Ly3 cells it was 6.33.
The corresponding values for `Cc1cc(-n2nccn2)c(C#N)cc1NC(=O)c1cnn(-c2cccc3c(=O)[nH]ccc23)c1C(F)(F)F` [Cpd 446, N-(5-cyano-2-methyl-4-(2H-1,2,3-triazol-2-yl)phenyl)-1-(1-oxo-1,2-dihydroisoquinolin-5-yl)-5-(trifluoromethyl)-1H-pyrazole-4-carboxamide] are 7.89, 7.49, 7.66, < 4.70 and 5.97.
